Values joined by “and” are separate entries in the source; they are usually repeats but may differ in a detail not shown here. Identical values can stand only once. Like-named read-outs stand apart in the source and are kept apart here.
Legend:
DPPH radical assay = conditions: for time to reach plateau / steady state with DPPH•: 50 μM syringaldehyde, 12.5 μM Trolox and ascorbic acid, methanol, room temperature, 515 nm; for IC50: read-out: DPPH IC50 at 120 min, Example 15
[1] = beta-carotene-linoleate assay; format: biochemical; conditions: 50° C., 180 min, 470 nm
From the text: The ability of the dendritic antioxidants 1, 2, and 3 to protect linoleic acid against free radical damage was examined by the beta-carotene-linoleate model (Jayaprakasha, G. K., et al. Food Chem. 2001, 73, 285, incorporated herein by reference in its entirety). In the absence of an antioxidant, hydroperoxides formed from linoleic acid oxidation bleach the highly unsaturated beta-carotene by a free-radical-mediated phenomenon. The bleaching of the reddish-orange color of beta-carotene was monitored at 470 nm in the presence of various concentrations of antioxidant. The % absorbance (corrected for control without antioxidant) was determined at each antioxidant concentration after incubation at 50° C. for 180 min. The % A470 nm values were determined as follows: % A470 nm=[(At(180 min)/At(0 min))×100]−[(Ac(180 min)/Ac(0 min))×100], wherein At(180 min)=absorbance at 470 nm of antioxidant sample incubated at 50° C. for 180 min, At(0 min)=absorbance at 470 nm of antioxidant sample incubated at 50° C. for 0 min, Ac(180 min)=absorbance at 470 nm of control sample (without antioxidant) incubated at 50° C. for 180 min, and Ac(0 min)=absorbance at 470 nm of control sample (without antioxidant) incubated at 50° C. for 0 min. […] In FIG. 24, protection of linoleic acid from oxidation by various antioxidants is shown for compound 1 (□), compounds 2 and 3 (•), quercetin (x), and Trolox (Δ).

plasmid DNA pBR 322 = assay: Protection of plasmid DNA from AAPH damage (agarose electrophoresis); format: biochemical; conditions: 10 mM AAPH, 37° C., 4 h

DPPH• remaining at plateau (DPPH radical assay; 5 μM compound 1) | DPPH• remaining in two minutes (DPPH radical assay; 5 μM compound 1) | IC50 (DPPH radical assay) | SMILES | # of DDPH• reduced per antioxidant molecule (1/stoichiometry) (DPPH radical assay) | Antioxidant Capacity Relative to Trolox, DPPH (DPPH radical assay) | decrease in DDPH• (DPPH radical assay; 5 μM solution) | time to reach plateau / steady state with DPPH• (DPPH radical assay; 5 μM compound 1) | Antioxidant Capacity Relative to Trolox, DPPH (DPPH radical assay; listed as compound 1) | DPPH antioxidant capacity, times better than ascorbic acid (DPPH radical assay; listed as compound 1) | protection of linoleic acid from oxidation [1] | DNA protection (plasmid DNA pBR 322; 5 μM antioxidant) | DNA protection (S band intensity) (plasmid DNA pBR 322; 11-45 μM antioxidant) | DNA protection (plasmid DNA pBR 322; below 5 μM antioxidant) | DNA protection at all concentrations used (plasmid DNA pBR 322; 0.35-45 μM)
46% | 60% | 4 µM | COc1cc(CN(Cc2ccc(CN(Cc3cc(OC)c(O)c(OC)c3)Cc3cc(OC)c(O)c(OC)c3)cc2)Cc2cc(OC)c(O)c(OC)c2)cc(OC)c1O [Compound 1] | 8.8 | 4.9 | 60% | approximately 45 min | ~5 and 4.9 | ~5 times and 4.9 times | most effective | Some protection | well protected | No protection | 
 |  | 30 µM | Cc1c(C)c2c(c(C)c1O)CCC(C)(C(=O)O)O2 (stereo not shown) [Trolox, 6-hydroxy-2,5,7,8-tetramethylchroman-2-carboxylic acid] | 1.8 | 1 |  | ≤ 2 min |  |  | more effective than compounds 2 and 3 (and quercetin) at lower concentrations |  |  |  | ineffective

Source: US8895032B2, “Dendritic nano-antioxidants” (Central Michigan University, priority 2009, dated 2014)
